The text below walks through data of US20250376479A1, “EXATECAN DERIVATIVES AND USES THEREOF” (priority 2024, published 2025).

One data set concerns SHP77. Put plainly: Cytotoxicity test, luminescent cell viability. It counts as cell-based. The following applies: Homo sapiens; SHP77 (SCLC), 72-hour incubation. The text has this:
(§1) Cytotoxicity of compounds was investigated using SHP77 (SCLC ATCC No. CRL-2195), NCI-H82 (SCLC, Jennio-bio No. JNO-22126A), NCI-H524 (SCLC, Pricella NO. CL-0403), NCI-H226 (Lung cancer, Pricella NO. CL-0396), NCI-H460 (LCLC, Pricella NO. CL-0299), OVCAR3 (Ovarian cancer, ATCC No. HTB-161), OV90 (Ovarian cancer, ATCC No. CRL-11732), LS1034 (Colon carcinoma, cobioer No. CBP60013), HT55 (Colon carcinoma, cobioer No. CBP60012), MDA-MB-468 (Breast cancer, ATCC No.htb-132) and NCI-N87 (Stomach cancer, ATCC No.CRL-5822). In brief, 5,000 cells/well of cancer cells were platted in white 96-well assay plates with flat clear bottom (Cat. No. BS-MP-96W, Biosharp) (excluding edge wells, which contained medium or PBS only) in 90 μL basic culture medium and were grown at 37° C. in a humidified incubator at 5% CO2 atmosphere. After incubation overnight, each compound was added to the respective wells in an amount of 10 μl of 10× concentrate tests from 100 nM to 0.015 nM. After additional 72-hour incubation, plates were removed from incubator and equilibrated to room temperature. After approximately 30 mins, 50 μL of Cell counting-lite 2.0 Luminescent Cell Viability Assay (Cat. No. G7573, Promega) were added to each well. After shaking the plates at 450 rpm for 3 mins followed by 10-min incubation without shaking, luminescence was measured on the Envision plate reader (Equipment No. 2104, PerkinElmer) with integration time of 250 ms per well. Curves of luminescence versus concentration (nM) were fitted with GraphPad Prism Software.

The subject of another data set is NCI-H460. Put plainly: Cytotoxicity test, luminescent cell viability. As to conditions: Homo sapiens; NCI-H460 (LCLC), 72-hour incubation. The data set is classed as cell-based.
Excerpt: as §1

In a further data set the test system is HT55. Put plainly: Cytotoxicity test, luminescent cell viability. It counts as cell-based. As to conditions: Homo sapiens; HT55 (Colon carcinoma), 72-hour incubation.
Excerpt: as §1

Another data set relates to OV90. Put plainly: Cytotoxicity test, luminescent cell viability. It counts as cell-based. As to conditions: Homo sapiens, OV-90; OV90 (Ovarian cancer), 72-hour incubation.
Excerpt: as §1

For another data set, the system named is NCI-H524. Description: Cytotoxicity test, luminescent cell viability. The data set is classed as cell-based. The following applies: Homo sapiens; NCI-H524 (SCLC), 72-hour incubation.
Excerpt: as §1

The next data set concerns NCI-H226. Put plainly: Cytotoxicity test, luminescent cell viability. The following applies: Homo sapiens; NCI-H226 (Lung cancer), 72-hour incubation. It counts as cell-based.
Excerpt: as §1

For another data set, the system named is NCI-N87. Put plainly: Cytotoxicity test, luminescent cell viability. The data set is classed as cell-based. The following applies: Homo sapiens; NCI-N87 (Stomach cancer), 72-hour incubation; read-out: IC50 NC-N87.
Excerpt: as §1

In the next data set the test system is NCI-H82. Description: Cytotoxicity test, luminescent cell viability. It counts as cell-based. The following applies: Homo sapiens; NCI-H82 (SCLC), 72-hour incubation.
Excerpt: as §1

Another data set relates to LS1034. Description: Cytotoxicity test, luminescent cell viability. As to conditions: Homo sapiens, LS-1034; LS1034 (Colon carcinoma), 72-hour incubation. It counts as cell-based.
Excerpt: as §1

A further data set has as its system MDA-MB-468. Description: Cytotoxicity test, luminescent cell viability. The data set is classed as cell-based. The following applies: Homo sapiens; MDA-MB-468 (Breast cancer), 72-hour incubation.
Excerpt: as §1

The subject of a further data set is OVCAR3. Put plainly: Cytotoxicity test, luminescent cell viability. It counts as cell-based. As to conditions: Homo sapiens, OVCAR-3; OVCAR3 (Ovarian cancer), 72-hour incubation.
Excerpt: as §1

Data set [1] can be described thus: Membrane permeability test (Caco-2 monolayer). As to conditions: human, Caco-2, pH 7.4. The data set is classed as in vitro ADME. The procedure: Caco-2 cells purchased from ATCC were seeded onto 0.4 μm pore polycarbonate membranes (PC) in 96-well Corning Insert plates at 3.5×10^4 cells/cm^2, and refreshed medium every 4˜5 days until to the 21st to 28th day for confluent cell monolayer formation.
The transport buffer in the study was HBSS with 10.0 mM HEPES at pH 7.40±0.05. Each test compound was tested at 2.00 μM in the presence or absence of 1.00 μM zosuquidar bi-directionally in duplicate. Digoxin was tested at 10.0 μM in the presence or absence of 1.00 μM zosuquidar bi-directionally in duplicate, while nadolol and metoprolol were tested at 2.00 μM in the absence of zosuquidar in A to B direction in duplicate. Final DMSO concentration was adjusted to less than 1%. The plate was incubated for 2 hours in CO2 incubator at 37.0° C., with 5% CO2 at saturated humidity without shaking. And all samples after mixed with acetonitrile containing internal standard were centrifuged at 3220×g for 10 min. Concentrations of test compounds in starting solution, donor solution and receiver solution were quantified by LC-MS/MS methodologies, using peak area ratio of analyte/internal standard. And permeation of lucifer yellow through the monolayer was measured to evaluate the cellular integrity.
The apparent permeability coefficient Papp (cm/s) was calculated using the equation: […]
where dCr/dt is the cumulative concentration of compound in the receiver chamber as a function of time; Vr is the solution volume in the receiver chamber (0.0750 mL on the apical side, 0.250 mL on the basolateral side); A is the surface area for the transport, i.e., 0.143 cm2 for the area of the monolayer; C0 is the initial concentration in the donor chamber.

In the case of `CCCCC(=O)N[C@@H]1CCc2c(C)c(F)cc3nc4c(c1c23)Cn1c-4cc2c(c1=O)COC(=O)[C@]2(O)CC` [Compound 1], the IC50 in the data set on SHP77 came out at 45.7 nM; with NCI-H460, 10.2 nM; in the data set with HT55, 130 nM; in the data set with OV90 it was 3.9 nM; in the data set with NCI-H524, 4.4 nM; in the data set on NCI-H226 it was 4.8 nM. Moreover, the IC50 worked out at 6.2 nM with NCI-N87; 96 nM in the data set with NCI-H82; 63.5 nM in the data set with LS1034; 2.5 nM in the data set with MDA-MB-468; 92.9 nM in the data set on OVCAR3. In [1], this compound gave an apical-to-basolateral permeability (Papp A→B) at 2 h, 2 μM of 0.365 ×10⁻⁶ cm/s.

Consider `CC[C@@]1(O)C(=O)OCc2c1cc1n(c2=O)Cc2c-1nc1cc(F)c(C)c3c1c2[C@H](NC(=O)CN(C)C)CC3` [Compound 2], for which the concentration for half-maximal inhibition (IC50) in the data set on SHP77 is 301 nM; with NCI-H460, 15.5 nM; with HT55, 315 nM; with OV90 it was 15.2 nM; in the data set with NCI-H524, 40.4 nM; in the data set with NCI-H226, 21 nM. The concentration for half-maximal inhibition (IC50) in the data set with NCI-N87 came out at 13 nM; in the data set with NCI-H82, 154 nM; with LS1034 it was 205 nM; in the data set on MDA-MB-468 it was 10.8 nM; in the data set with OVCAR3 it was 208 nM. This compound yielded a Papp A→B at 2 h, 2 μM in data set [1] of 0.199 ×10⁻⁶ cm/s.

For the compound `CC[C@@]1(O)C(=O)OCc2c1cc1n(c2=O)Cc2c-1nc1cc(F)c(C)c3c1c2[C@H](NC(=O)C1CC1)CC3` [Compound 3], the IC50 with SHP77 amounted to 60 nM; in the data set on NCI-H460, 8.9 nM; with HT55, 68.1 nM; with OV90, 5.1 nM; with NCI-H524, 11.3 nM; with NCI-H226, 3.6 nM. For the same compound, the IC50 with NCI-N87 came out at 5.3 nM; with NCI-H82, 50.2 nM; in the data set on LS1034, 41.7 nM; with MDA-MB-468, 2.1 nM; in the data set with OVCAR3, 91.2 nM. The compound also displayed a Papp A→B at 2 h, 2 μM in data set [1] of 0.279 ×10⁻⁶ cm/s.

Take `CC[C@@]1(O)C(=O)OCc2c1cc1n(c2=O)Cc2c-1nc1cc(F)c(C)c3c1c2[C@H](NC(=O)C1COC1)CC3` [Compound 4]: the IC50 with SHP77 stood at 655 nM; in the data set on NCI-H460 it was 31.2 nM; in the data set on HT55, 349 nM; with OV90 it was 76 nM; with NCI-H524, 90.6 nM; with NCI-H226 it was 44.6 nM. Further, the half-inhibitory concentration (IC50) came to 29.6 nM in the data set with NCI-N87; 1500 nM in the data set with NCI-H82; 249 nM in the data set with LS1034; 6.7 nM with MDA-MB-468; 395 nM in the data set on OVCAR3. Besides, the Papp A→B at 2 h, 2 μM in [1] was 0.026 ×10⁻⁶ cm/s.

Consider `CC[C@@]1(O)C(=O)OCc2c1cc1n(c2=O)Cc2c-1nc1cc(F)c(C)c3c1c2[C@H](NC(=O)CCOC)CC3` [Compound 5], for which the 50% inhibitory concentration (IC50) was found to be 202 nM in the data set on SHP77; 19.4 nM in the data set on NCI-H460; 192 nM in the data set with HT55; 9.6 nM in the data set on OV90; 21.5 nM in the data set on NCI-H524; 9.8 nM with NCI-H226. Also, the IC50 with NCI-N87 was 16.8 nM; in the data set on NCI-H82, 288 nM; in the data set on LS1034, 158 nM; in the data set on MDA-MB-468, 5.1 nM; in the data set on OVCAR3, 270 nM. In data set [1], this compound yielded a Papp A→B at 2 h, 2 μM of 0.105 ×10⁻⁶ cm/s.

With `CC[C@@]1(O)C(=O)OCc2c1cc1n(c2=O)Cc2c-1nc1cc(F)c(C)c3c1c2[C@H](NC(=O)C1CCC1)CC3` [Compound 6], the IC50 in the data set on SHP77 came out at 68 nM; in the data set with NCI-H460, 6.8 nM; in the data set with HT55, 215 nM; in the data set on OV90, 8.9 nM; with NCI-H524, 9.9 nM; in the data set on NCI-H226, 3.8 nM. The 50% inhibitory concentration (IC50) with NCI-N87 came out at 3.5 nM; in the data set with NCI-H82, 57.3 nM; with LS1034 it was 55.3 nM; in the data set with MDA-MB-468, 2.5 nM; in the data set with OVCAR3, 89.3 nM. In data set [1], this compound registered an apparent permeability from apical to basolateral (Papp A→B) at 2 h, 2 μM of 0.264 ×10⁻⁶ cm/s.

For `CC[C@@]1(O)C(=O)OCc2c1cc1n(c2=O)Cc2c-1nc1cc(F)c(C)c3c1c2[C@H](NC(=O)C1CCCO1)CC3` (some centres unmarked) [Compound 7], the IC50 in the data set with SHP77 came out at 236 nM; in the data set with NCI-H460, 11.2 nM; with HT55, 104 nM; in the data set on OV90, 26 nM; in the data set with NCI-H524 it was 39.5 nM; in the data set on NCI-H226 it was 17.9 nM. The IC50 in the data set on NCI-N87 was 7.4 nM; in the data set on NCI-H82 it was 171 nM; in the data set on LS1034 it was 170 nM; in the data set on MDA-MB-468, 4.8 nM; in the data set with OVCAR3, 144 nM. This compound also registered a Papp A→B at 2 h, 2 μM in data set [1] of 0.56 ×10⁻⁶ cm/s.

For the compound `CC[C@@]1(O)C(=O)OCc2c1cc1n(c2=O)Cc2c-1nc1cc(F)c(C)c3c1c2[C@H](NC(=O)CC(C)C)CC3` [Compound 8], the 50% inhibitory concentration (IC50) in the data set on SHP77 amounted to 156 nM; with NCI-H460, 4.5 nM; in the data set on HT55, 110 nM; with OV90 it was 17.8 nM; with NCI-H524, 21 nM; with NCI-H226 it was 6 nM. Also, the IC50 in the data set on NCI-N87 came to 4.7 nM; in the data set on NCI-H82, 53.8 nM; in the data set on LS1034 it was 159 nM; in the data set with MDA-MB-468 it was 2.1 nM; in the data set on OVCAR3, 95.7 nM.

As to `CC[C@@]1(O)C(=O)OCc2c1cc1n(c2=O)Cc2c-1nc1cc(F)c(C)c3c1c2[C@H](NC(=O)C(C)C)CC3` [Compound 10], the IC50 with SHP77 came to 101 nM; in the data set on NCI-H460, 7.4 nM; in the data set on HT55, 69.6 nM; in the data set with OV90 it was 9.8 nM; with NCI-H524 it was 17.9 nM; with NCI-H226, 5.1 nM. The half-inhibitory concentration (IC50) in the data set on NCI-N87 was 5.2 nM; in the data set with NCI-H82 it was 61.7 nM; in the data set with LS1034, 114 nM; in the data set with MDA-MB-468, 2.9 nM; in the data set with OVCAR3, 68.1 nM. The compound also displayed an apical-to-basolateral permeability (Papp A→B) at 2 h, 2 μM in data set [1] of 0.358 ×10⁻⁶ cm/s.

In general, IC50 refers to the concentration at which inhibition is half-maximal. In general, Papp A→B refers to the apparent permeability from the apical to the basolateral side of a cell layer. Lower therefore signals slow passage.
